Results published in patent publication US6900216B2, “Dihydroimidazo[2,1-b]thiazole and dihydro-5h-thiazolo[3,2-A]pyrimidines as antidepressant agents” (Knoll GmbH, priority 2000, dated 2005).

molecular target: T1, 5-HT1A receptors (Rattus norvegicus, UniProt P19327); test: 5-HT1A binding: inhibition of [3H]8-OH-DPAT binding to rat hippocampal membranes; conditions: 10^−6 M test compound, single determination, [3H]8-OH-DPAT; read-out: 5-HT1A % displacement at 10^−6 M
T1 construct: Hippocampal tissue from the brains of male Sprague-Dawley rats; from tissue; host or cells: rat hippocampal membranes
T1 sequence (P19327 1-422): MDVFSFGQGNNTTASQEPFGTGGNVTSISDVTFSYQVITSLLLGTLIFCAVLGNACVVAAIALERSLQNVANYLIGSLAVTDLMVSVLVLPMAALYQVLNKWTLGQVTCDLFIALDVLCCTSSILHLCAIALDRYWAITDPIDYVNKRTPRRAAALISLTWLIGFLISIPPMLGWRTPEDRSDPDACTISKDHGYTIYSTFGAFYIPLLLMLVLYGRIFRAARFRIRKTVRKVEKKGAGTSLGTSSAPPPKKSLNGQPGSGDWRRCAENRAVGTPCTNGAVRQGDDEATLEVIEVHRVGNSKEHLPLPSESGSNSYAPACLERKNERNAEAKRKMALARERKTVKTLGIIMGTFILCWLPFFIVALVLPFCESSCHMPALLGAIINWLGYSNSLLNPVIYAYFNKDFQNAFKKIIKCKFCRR
Protocol: Hippocampal tissue from the brains of male Sprague-Dawley rats (Charles River; weight range 150-250 g) was homogenised in ice-cold 50 mM Tris-HCl buffer (pH 7.7 when measured at 25° C., 1:40 w/v) and centrifuged at 40,000 g at 4° C. for 10 minutes. The pellet was rehomogenised in the same buffer, incubated at 37° C. for 10 minutes and centrifuged at 40,000 g at 4° C. for 10 minutes. The final pellet was resuspended in 50 mM Tris-HCl buffer (pH 7.7) containing 4 mM CaCl2, 0.1% L-ascorbic acid and 10 μM pargyline hydrochloride (equivalent to 6.25 mg wet weight of tissue/ml) and used immediately in the binding assay.
Membranes (400 μl; equivalent to 2.5 mg wet weight of tissue/tube) were incubated with 50 μl of [^3H]8-hydroxy-2-(dipropylamino)tetralin ([^3H]8-OH-DPAT) at a single concentration of 1 nM and 50 μl of distilled water (total binding) or 50 μl of test compound (at a single concentration of 10^−6 M or at 10 concentrations ranging from 10^−11-10^−3 M) or 50 μl of 5-HT (10 μM, non-specific binding) at 25° C. for 30 minutes. The incubation was terminated by rapid filtration under vacuum through Skatron 11734 filters using a Skatron Cell Harvester. Filters were washed with ice-cold 50 mM Tris-HCl buffer, pH 7.7 (at 25° C., wash setting 9,9,0). The scored filter paper discs were punched out into vials, scintillation fluid added and radioactivity determined by liquid scintillation counting.
For each of these tests measuring the ability of compounds of Formula I to displace standard ligands from 5-HT1A receptors and 5-hydroxytryptamine (5-HT) and noradrenaline (NA) reuptake sites and muscarinic receptors in vitro, the percentage displacement of specific binding of tritiated ligand by 10^−6 M test compound was calculated in the following way.
Firstly, specific binding of tritiated ligand in the absence (A) and presence (B) of test compound was determined:
In the absence of compound: A(dpm)=Total binding (dpm)−Non-specific binding (dpm) In the presence of compound (10^−6 M): B(dpm)=Binding at 10^−6M (dpm)−Non-specific binding (dpm)
The specific binding of tritiated ligand in the presence (B) of compound was then converted to a percentage of specific binding of tritiated ligand in the absence (A) of compound: % Specific binding at 10^−6 M=B(dpm)/A(dpm)×100
The percentage displacement of specific binding of tritiated ligand by the test compound (10^−6 M) was then obtained by subtraction of the percentage specific binding in the presence of compound from the percentage specific binding in the absence of compound, which is taken as the maximum binding and so equals 100%:
% Displacement at 10^−6 M=100−% Specific binding at 10^−6 M.
In some cases, displacement curves were then produced for compounds which displaced ≧50% of specific binding of the tritiated ligand at 10^−6 M using a range of concentrations of the compound. The Ki was then calculated by simultaneous fitting using equations derived from the Feldman equations by robust non-linear regression to data from three experiments simultaneously (De Lean et al., 1978; Munson and Rodbard, 1980; Feldman, 1992). Munson P J and Rodbard D. Ligand: a versatile computerised approach for characterisation of ligand binding systems. Anal Biochem 1980; 107: 220. Feldman HA. Mathematical theory of complex ligand binding systems at equilibrium: some methods for parameter fitting. Anal Biochem 1992: 48, 317. De Lean A, Munson P J and Rodbard D. Simultaneous analysis of families of sigmoidal curves: application to bioassay, radioligand assay, and physiological dose-response curves. Am J Physiol 1978: 235 (2), E97-E102.
The results obtained in the above tests for 5-HT1A binding and 5-HT and NA uptake and muscarinic binding for the final products of Examples 1-39 hereinafter are given in Table 1 below. Kis are in nM. % Figures are for % displacement at 10^−6 M for a single determination.

Row | SMILES | inhibition at 1 µM
1 | OCC1=C(c2cc3ccccc3s2)N2CCN=C2S1 [Example 15, [3-(benzo[b]thiophen-2-yl)-5,6-dihydroimidazo[2,1-b]thiazol-2-yl]methanol] | 97%

same assay, conditions: [3H]8-OH-DPAT 1 nM, rat hippocampal membranes; fit to data from three experiments

Row | Ki | SMILES
2 | 86 nM | C1=C(c2cccc3sccc23)N2CCN=C2S1.Cl [Example 2, 3-(benzo[b]thiophen-4-yl)-5,6-dihydroimidazo[2,1-b]thiazole hydrochloride]
3 | 20.4 nM | OCC1=C(c2cccc3sccc23)N2CCN=C2S1 [Example 3, [3-(benzo[b]thiophen-4-yl)-5,6-dihydroimidazo[2,1-b]thiazol-2-yl]methanol]
4 | 2.2 nM | OCC1=C(c2cc3c(Cl)cccc3s2)N2CCN=C2S1 [Example 4, [3-(4-chlorobenzo[b]thiophen-2-yl)-5,6-dihydroimidazo[2,1-b]thiazol-2-yl]methanol]
5 | 14.3 nM | Br.CC1=C(c2cccc3sccc23)N2CCN=C2S1 [Example 8, 3-(benzo[b]thiophen-4-yl)-2-methyl-5,6-dihydroimidazo[2,1-b]thiazole hydrobromide]
6 | 15 nM | CC1=C(c2cccc3sccc23)N2CCN=C2S1.Cl [Example 9, 3-(benzo[b]thiophen-4-yl)-2-methyl-5,6-dihydroimidazo[2,1-b]thiazole hydrochloride]

Continued, molecule first:

Row | SMILES | Ki
7 | Br.CC1=C(c2cc3ccccc3s2)N2CCN=C2S1 [Example 6, 3-(benzo[b]thiophen-2-yl)-2-methyl-5,6-dihydroimidazo[2,1-b]thiazole hydrobromide] | 9.7 nM
8 | Br.CC1=C(c2cc3c(F)cccc3s2)N2CCN=C2S1 [Example 7, 3-(4-fluorobenzo[b]thiophen-2-yl)-2-methyl-5,6-dihydroimidazo[2,1-b]thiazole hydrobromide] | 11.7 nM
9 | Br.CC1=C(c2cc3c(Cl)cccc3s2)N2CCN=C2S1 [Example 10, 3-(4-chlorobenzo[b]thiophen-2-yl)-2-methyl-5,6-dihydroimidazo[2,1-b]thiazole hydrobromide] | 5.9 nM
10 | Br.Oc1cccc2sc(C3=CSC4=NCCN34)cc12 [Example 12, 2-(5,6-dihydroimidazo[2,1-b]thiazol-3-yl)benzo[b]thiophen-4-ol hydrobromide] | 52 nM
11 | Br.CCC1=C(c2cccc3sccc23)N2CCN=C2S1 [Example 13, 3-(benzo[b]thiophen-4-yl)-2-ethyl-5,6-dihydroimidazo[2,1-b]thiazole hydrobromide] | 15.5 nM

same assay, conditions: read-out: 5-HT1A % displacement at 10^−6 M

Row | SMILES | inhibition at 1 µM
12 | Br.Clc1cccc2sc(C3=CSC4=NCCN34)cc12 [Example 1, 3-(4-chlorobenzo[b]thiophen-2-yl)-5,6-dihydroimidazo[2,1-b]thiazole hydrobromide] | 60%
13 | Cl.Fc1cccc2sc(C3=CSC4=NCCN34)cc12 [Example 5, 3-(4-fluorobenzo[b]thiophen-2-yl)-5,6-dihydroimidazo[2,1-b]thiazole hydrochloride] | 55%
14 | Br.CCC1=C(c2cc3cc(Cl)ccc3s2)N2CCN=C2S1 [Example 11, 3-(5-chlorobenzo[b]thiophen-2-yl)-2-ethyl-5,6-dihydroimidazo[2,1-b]thiazole hydrobromide] | 80%
15 | Cc1cccc2sc(C3=CSC4=NCCN34)cc12.Cl [Example 14, 3-(4-methylbenzo[b]thiophen-2-yl)-5,6-dihydroimidazo[2,1-b]thiazole hydrochloride] | 64%
16 | Br.CC1=C(c2cc3c(C)cccc3s2)N2CCN=C2S1 [Example 16, 2-methyl-3-(4-methylbenzo[b]thiophen-2-yl)-5,6-dihydroimidazo[2,1-b]thiazole hydrobromide] | 97%
17 | Br.CC1=C(c2cc3c(Cl)cccc3s2)N2CCCN=C2S1 [Example 17, 3-(4-chlorobenzo[b]thiophen-2-yl)-2-methyl-6,7-dihydro-5H-thiazolo[3,2-a]pyrimidine hydrobromide] | 82%
18 | Br.CCC1=C(c2cc3c(Cl)cccc3s2)N2CCN=C2S1 [Example 18, 3-(4-chlorobenzo[b]thiophen-2-yl)-2-ethyl-5,6-dihydroimidazo[2,1-b]thiazole hydrobromide] | 96%
